The series is described as follows: activity coefficient (dimensionless); of the first substance listed, at infinite dilution; xn = mol fraction of the nth substance listed. The conditions noted are these: Liquid, Chromatography, x1 = 0.

The values that follow come from the NIST ThermoML archive (doi:10.1016/j.jct.2003.08.018).

Molecules are shown by their SMILES. ± gives the expanded uncertainty stated by the source.

Turning to `C=CC=C` [1,3-butadiene] + CCCO, the activity coefficient runs as follows: (260.02 K) 4.2 ± 0.19; (280.03 K) 4.15 ± 0.18; (299.99 K) 4.1 ± 0.18; (320.09 K) 4.06 ± 0.18; (340.06 K) 3.98 ± 0.18.
On to `C=CC` [propene] + CCCO, for which the activity coefficient was determined as 3.58 ± 0.16 (259.92 K); 3.61 ± 0.16 (279.94 K); 3.66 ± 0.16 (300.03 K); 3.64 ± 0.16 (320.02 K); 3.64 ± 0.16 (340.1 K).
`CCC` [propane] + CCCO: the activity coefficient by setting is: (259.98 K) 4.6 ± 0.2; (279.96 K) 4.62 ± 0.2; (299.96 K) 4.64 ± 0.2; (320.03 K) 4.61 ± 0.2; (339.95 K) 4.56 ± 0.2.
`C=C(C)C` [2-methylpropene] + CCCO: the activity coefficient reads like this: (259.91 K) 4.09 ± 0.18; (279.95 K) 4.08 ± 0.18; (299.94 K) 4.04 ± 0.18; (320.06 K) 4 ± 0.18; (340.16 K) 3.94 ± 0.17.
Turning to `C=CCC` [1-butene] + CCCO, the activity coefficient runs as follows: (260.03 K) 4.13 ± 0.18; (280.04 K) 4.12 ± 0.18; (299.98 K) 4.11 ± 0.18; (320.03 K) 4.05 ± 0.18; (340 K) 4.01 ± 0.18.
Consider `CC(C)C` [2-methylpropane] + CCCO, for which the activity coefficient is, setting by setting: (259.98 K) 5.48 ± 0.24; (279.94 K) 5.37 ± 0.24; (300.16 K) 5.24 ± 0.23; (320 K) 5.14 ± 0.23; (339.92 K) 5.05 ± 0.22.
`CCCC` [butane] + CCCO: the activity coefficient is, setting by setting: (260.05 K) 5.17 ± 0.23; (280.05 K) 5.06 ± 0.22; (299.99 K) 5.03 ± 0.22; (320.05 K) 4.88 ± 0.22.
In the case of `C/C=C/C` [(E)-2-butene] + CCCO, the activity coefficient by setting is: (260.02 K) 4.2 ± 0.19; (280.03 K) 4.15 ± 0.18; (299.99 K) 4.1 ± 0.18; (320.09 K) 4.06 ± 0.18; (340.06 K) 3.98 ± 0.18.
